The record followed here is patent US11465987B2, “Compounds for treatment of cancer” (ONCTERNAL THERAPEUTICS, INC., priority 2012, dated 2022).

The test system of assay [1] is PC-3 human prostate cancer cell line. The assay is described as follows: cells. The text has this: (§1) Cells were stained with SRB solution.
The test system of assay [2] is A375 human melanoma cell line. The assay is described as follows: Cytotoxicity (SRB) assay, A375. It is filed as cell-based.
For assay [3], the system named is melanoma and prostate cancer cell lines. As to the kind of experiment: Antiproliferative activity summarised over the cell line panel (range or average). Format: cell-based.
In assay [4] the test system is PPC-1 human prostate cancer cell line. The assay is described as follows: Cytotoxicity (SRB) assay, PPC-1. Format: cell-based.
Source text: as §1

For assay [5], the system named is DU 145 human prostate cancer cell line. The assay is described as follows: Cytotoxicity (SRB) assay, DU 145. Format: cell-based.
Source text: as §1

The subject of assay [6] is B16-F1 mouse melanoma cell line. As to the kind of experiment: Cytotoxicity (SRB) assay, B16-F1. Format: cell-based.
The test system of assay [7] is LNCaP human prostate cancer cell line. The assay is described as follows: Cytotoxicity (SRB) assay, LNCaP. It is filed as cell-based.
Source text: as §1

Assay [8] has as its system WM-164 human melanoma cell line. As to the kind of experiment: Cytotoxicity (SRB) assay, WM-164. It is filed as cell-based.
The mark [9] stands for this setting: Homo sapiens, read-out: IC50 PC-3, SRB assay, prostate cancer PC-3.
Setting [10] is: Homo sapiens, A-375, SRB assay, human melanoma A375, read-out: IC50 A375.
[11] abbreviates: Homo sapiens, PPC-1, SRB assay, prostate cancer PPC-1, read-out: IC50 PPC-1.
The mark [12] stands for this setting: Homo sapiens, DU-145, SRB assay, prostate cancer DU 145, read-out: IC50 DU 145.
[13] abbreviates: Mus musculus, B16-F1, SRB assay, mouse melanoma B16-F1, read-out: IC50 B16-F1.
[14] abbreviates: Homo sapiens, LNCaP, SRB assay, prostate cancer LNCaP, read-out: IC50 LNCaP.
Where [15] appears, read: Homo sapiens, read-out: IC50 ± SEM, PC-3, Table 12.
The mark [16] stands for this setting: Homo sapiens, A-375, Table 12, read-out: IC50 ± SEM, A375 (converted).
[17] abbreviates: Homo sapiens, WM164, Table 12, read-out: IC50 ± SEM, WM164 (converted).
Where [18] appears, read: Mus musculus, B16-F1, Table 12, read-out: IC50 ± SEM, B16-F1 (converted).
[19] abbreviates: read-out: inhibitory effects, PC3, Table 13A.
Setting [20] is: Table 13A, read-out: inhibitory effects, PPC1.
Where [21] appears, read: Table 13A, read-out: inhibitory effects, DU145.
Where [22] appears, read: Table 13A, read-out: inhibitory effects, LNCaP.
[23] abbreviates: Homo sapiens, read-out: inhibitory effects, PC3, Table 13A.
Where [24] appears, read: Homo sapiens, PPC-1, Table 13A, read-out: inhibitory effects, PPC1.
The mark [25] stands for this setting: Homo sapiens, DU-145, Table 13A, read-out: inhibitory effects, DU145.
[26] abbreviates: Homo sapiens, LNCaP, Table 13A, read-out: inhibitory effects, LNCaP.
Where [27] appears, read: Homo sapiens, read-out: IC50 ± SEM, PC-3, Table 6A.
Where [28] appears, read: Homo sapiens, PPC-1, Table 6A, read-out: IC50 ± SEM, PPC-1 (converted).
The mark [29] stands for this setting: Homo sapiens, DU-145, Table 6A, read-out: IC50 ± SEM, DU 145.
Setting [30] is: Homo sapiens, LNCaP, Table 6A, read-out: IC50 ± SEM, LNCaP (converted).
The mark [31] stands for this setting: Homo sapiens, read-out: IC50 ± SEM, PC-3.
[32] abbreviates: Homo sapiens, PPC-1, read-out: IC50 ± SEM, PPC-1.
Where [33] appears, read: Homo sapiens, DU-145, read-out: IC50 ± SEM, DU 145.
Where [34] appears, read: Homo sapiens, LNCaP, read-out: IC50 ± SEM, LNCaP.

SMILES strings stand for the structures. Where two headings read alike, the source gives them in different places. Where only a bound is given, the exact number is not on record here.

Turning to `COc1cc(C(=O)c2cccc(-c3ccccc3)n2)cc(OC)c1OC` [1c, (6-Phenylpyridin-2-yl)(3,4,5-trimethoxyphenyl)methanone], the IC50 in assay [1] (setting [9]) was 32 ± 2 nM; in assay [2] (setting [10]), 30 ± 14 nM; in assay [3] (range over prostate cancer cell lines, read-out: IC50 range against prostate cancer cells), 12 to 35 nM; in assay [4] (setting [11]), 25 ± 1 nM; in assay [5] (setting [12]), 33 ± 3 nM; in assay [6] (setting [13]) it was 39 ± 12 nM. Moreover, the IC50 in assay [7] (setting [14]) was determined as 27 ± 2 nM.

Take `COc1cc(C(=O)c2csc(-c3ccc(N(C)C)cc3)n2)cc(OC)c1OC` [2o, (2-(4-(Dimethylamino)phenyl)thiazol-4-yl)(3,4,5-trimethoxyphenyl)methanone]: the IC50 was 73 nM in assay [1] (setting [9]); 38 nM in assay [2] (setting [10]); 73 nM in assay [4] (setting [11]); 121 nM in assay [5] (setting [12]); 42 nM in assay [6] (setting [13]); 65 nM in assay [7] (setting [14]).

With `COc1cc(/C=C\c2csc(-c3ccccc3)n2)cc(OC)c1OC` [3a, (Z)-2-Phenyl-4-(3,4,5-trimethoxystyryl)thiazole], the IC50 in assay [1] (Homo sapiens, read-out: IC50 PC-3) was above 10000 nM; in assay [8] (Homo sapiens, WM164, read-out: IC50 WM164), 10600 ± 5800 nM. The “antiproliferative activity in words” value in assay [3] (Tables 1-3) is recorded as “lost activity”.

For the compound `COc1cc(Sc2cccc(-c3ccccc3)c2)cc(OC)c1OC` [4a, Biphenyl-3-yl(3,4,5-trimethoxyphenyl)sulfane], the IC50 in assay [1] (setting [9]) is above 10000 nM; in assay [2] (setting [10]), 1600 ± 400 nM; in assay [7] (setting [14]), 2300 ± 200 nM.

With `COc1cc(C(=O)c2c[nH]c(-c3ccc(F)cc3)n2)cc(OC)c1OC` [12ba, (2-(4-fluorophenyl)-1H-imidazol-4-yl)(3,4,5-trimethoxyphenyl)methanone], the IC50 in assay [1] (setting [15]) is 169 ± 12 nM; in assay [2] (setting [16]), 205 ± 19 nM; in assay [8] (setting [17]), 73 ± 8 nM; in assay [6] (setting [18]), 320 ± 41 nM.

Turning to `Cc1ccc(-c2nc(C(=O)c3ccc(F)cc3)c[nH]2)cc1` [12db, (4-fluorophenyl)(2-(p-tolyl)-1H-imidazol-4-yl)methanone], the IC50 in assay [8] (setting [17]) was 156 nM; in assay [3] (read-out: IC50 (range over tested cell lines)), 7.9 to 110 nM; in assay [4] (Homo sapiens, PPC-1, Table 12, read-out: IC50 ± SEM, PPC-1 (converted)), 54 nM; in assay [6] (setting [18]), 222 nM.

`COc1cc(C(=O)c2c[nH]c(-c3cc(OC)c(OC)c(OC)c3)n2)cc(OC)c1OC` [12ea, (3,4,5-trimethoxyphenyl)(2-(3,4,5-trimethoxyphenyl)-1H-imidazol-4-yl)methanone]: the IC50 in assay [2] (setting [16]) was 4800 nM; in assay [8] (setting [17]), above 10000 nM; in assay [3] (text on Tables 11-12, unit as printed, read-out: IC50 (average of all seven cell lines)) it was above 10000 nM; in assay [6] (setting [18]), above 10000 nM.

`COc1ccc(-c2nc(C(=O)c3ccc(F)cc3)c[nH]2)cc1OC` [12hb, (2-(3,4-dimethoxyphenyl)-1H-imidazol-4-yl)(4-fluorophenyl)methanone]: the IC50 in assay [1] (setting [15]) is 10000 nM; in assay [8] (setting [17]) it was 1400 nM; in assay [3] (Tables 11-13, read-out: IC50 (average of all seven cell lines)) it was 1000 to 50000 nM; in assay [6] (setting [18]) it was 4210 nM.

With `COc1cc(C(=O)c2c[nH]c(-c3ccc(OCc4ccccc4)cc3)n2)cc(OC)c1OC` [12ja, (2-(4-(benzyloxy)phenyl)-1H-imidazol-4-yl)(3,4,5-trimethoxyphenyl)methanone], the IC50 is 10000 nM in assay [1] (setting [15]), 5200 nM in assay [2] (setting [16]), 5500 nM in assay [8] (setting [17]) and 10000 nM in assay [6] (setting [18]).

In the case of `COc1cc(C(=O)c2c[nH]c(-c3ccc(O)cc3)n2)cc(OC)c1OC` [12ka, (2-(4-hydroxyphenyl)-1H-imidazol-4-yl)(3,4,5-trimethoxyphenyl)methanone], the IC50 in assay [2] (setting [16]) was 1600 nM; in assay [8] (setting [17]), 1800 nM; in assay [6] (setting [18]) it was 2400 nM.

Consider `O=C(c1cc(O)c(O)c(O)c1)c1c[nH]c(-c2ccc(Cl)cc2)n1` [13fa, (2-(4-chlorophenyl)-1H-imidazol-4-yl)(3,4,5-trihydroxyphenyl)methanone], for which the IC50 is 10000 nM in assay [1] (setting [15]), 3900 nM in assay [2] (setting [16]), 2100 nM in assay [8] (setting [17]) and 1810 nM in assay [6] (setting [18]).

On to `O=C(c1cc(O)c(O)c(O)c1)c1c[nH]c(-c2ccc(O)c(O)c2)n1` [13ha], for which the IC50 was above 10000 nM in assay [2] (Table 12, read-out: IC50 ± SEM, A375 (converted)); above 10000 nM in assay [8] (Table 12, read-out: IC50 ± SEM, WM164 (converted)); above 10000 nM in assay [6] (Table 12, read-out: IC50 ± SEM, B16-F1 (converted)).

With `COc1cc(C(=O)c2nc(-c3ccc(F)cc3)c[nH]2)cc(OC)c1OC` [70b, (4-(4-Fluorophenyl)-1H-imidazol-2-yl)(3,4,5-trimethoxyphenyl)methanone and (5-(4-fluorophenyl)-H-imidazol-2-yl)(3,4,5-trimethoxyphenyl)methanone], the IC50 in assay [1] (setting [19]) was found to be 196 nM; in assay [4] (setting [20]), 13 nM; in assay [5] (setting [21]), 353 nM; in assay [7] (setting [22]), 114 nM.

On to `COc1cc(C(=O)c2nc(-c3ccc(O)cc3)c[nH]2)cc(OC)c1OC` [70i, (4-(4-Hydroxyphenyl)-1H-imidazol-2-yl)(3,4,5-trimethoxyphenyl)methanone and (5-(4-hydroxyphenyl)-1H-imidazol-2-yl)(3,4,5-trimethoxyphenyl)methanone)], for which the IC50 in assay [1] (setting [19]) was determined as 155 nM; in assay [4] (setting [20]), 122 nM; in assay [5] (setting [21]), 518 nM; in assay [7] (setting [22]) it was 219 nM.

For `COc1cc(C(=O)c2nc(-c3ccccc3)cn2Cc2ccccc2)cc(OC)c1OC` [70o, (1-Benzyl-4-phenyl-1H-imidazol-2-yl)(3,4,5-trimethoxyphenyl)methanone], the IC50 came out at 72 nM in assay [1] (setting [23]), 77 nM in assay [4] (setting [24]), 160 nM in assay [5] (setting [25]) and 67 nM in assay [7] (setting [26]).

Turning to `COc1cc(C(=O)c2nc(-c3ccccc3)cn2C2CCCC2)cc(OC)c1OC` [70p, (1-cyclopentyl-4-phenyl-1H-imidazol-2-yl)(3,4,5-trimethoxyphenyl)methanone], the IC50 in assay [1] (setting [23]) is 56 nM; in assay [4] (setting [24]), 63 nM; in assay [5] (setting [25]), 167 nM; in assay [7] (setting [26]), 51 nM.

As for `O=C(c1csc(-c2ccccc2)n1)c1c(F)c(F)c(F)c(F)c1F` [compound 17], the IC50 in assay [1] (setting [27]) was 1900 nM; in assay [4] (setting [28]), 1300 nM; in assay [5] (setting [29]), 2600 nM; in assay [7] (setting [30]) it was 2100 nM.

With `COc1ccc(C(=O)n2ccnc2-c2ccc(F)cc2)cc1` [compound 24], the IC50 is above 10000 nM in assay [8] (Table 6A, read-out: IC50 ± SEM, WM164 (converted)) and above 10000 nM in assay [7] (Table 6A, read-out: IC50 ± SEM, LNCaP (converted)).

On to `COc1cc(C(=O)c2csc(-c3cccs3)n2)cc(OC)c1OC` [compound 25], for which the IC50 turned out to be 44 nM in assay [1] (setting [31]), 13 nM in assay [4] (setting [32]), 24 nM in assay [5] (setting [33]) and 48 nM in assay [7] (setting [34]).

With `COc1cc(C(=O)c2csc(-c3ccc(N)cc3)n2)cc(OC)c1OC` [compound 26], the IC50 was found to be 16 nM in assay [1] (setting [31]), 15 nM in assay [4] (setting [32]), 16 nM in assay [5] (setting [33]) and 23 nM in assay [7] (setting [34]).

With `Cc1ccc(-c2nc(C(=O)c3ccc(F)cc3)cn2C(=O)c2ccc(F)cc2)cc1` [compound 29], the IC50 in assay [1] (setting [27]) is above 10000 nM; in assay [4] (setting [28]), above 10000 nM; in assay [5] (setting [29]) it was above 10000 nM; in assay [7] (setting [30]) it was 1790 nM.

Consider `COc1cc(C(=O)c2cccc(-c3cc(OC)c(OC)c(OC)c3)c2)cc(OC)c1OC` [compound 35], for which the IC50 in assay [1] (setting [31]) was determined as 40100 nM; in assay [4] (setting [32]), 15000 nM; in assay [5] (setting [33]) it was 21900 nM; in assay [7] (setting [34]) it was 1500 nM.

On to `COc1cc(-c2cccc(CO)c2)cc(OC)c1OC` [compound 39], for which the IC50 in assay [1] (setting [27]) is 32500 nM; in assay [4] (setting [28]), 21400 nM; in assay [5] (setting [29]), 16800 nM; in assay [7] (setting [30]) it was 4300 nM.
